Data published in US11352359B2, “PI3K protein kinase inhibitors” (Rhizen Pharmaceuticals SA, priority 2013, dated 2022).

Experiments:
PI3Kβ = PI3Kβ (Homo sapiens, UniProt P42338); assay: Fluorescent determination of PI3Kinase enzyme activity (HTRF), PI3Kβ; type: biochemical
Source text: (§1) Fluorescent Determination of PI3Kinase Enzyme Activity
(§2) Phosphoinositide 3 kinases (PI3K) belong to a class of Lipid kinases that play a critical role in the regulation of several key cellular processes. The PI3K are capable of phosphorylating the 3-hydroxy position of phosphoinositols thereby generating second messengers involved in downstream signalling events. The homogenous time resolved fluorescence (HTRF) assay allows detection of 3,4,5-triphosphate (PIP3) formed as a result of phosphorylation of phosphotidylinositol 4,5-biphosphate (PIP2) by PI3K isoforms such as α, […], γ or δ.
(§3) PI3K isoform activity for α, β, γ or δ is to be determined using a PI3K human HTRF™ Assay Kit (Millipore, Billerica, Mass.) with modifications. All incubations were carried out at room temperature. Briefly, 0.5 μl of 40× inhibitor (in 100% DMSO) or 100% DMSO were added to each well of a 384-well black plate (Greiner Bio-One, Monroe, N.C.) containing 14.5 μl 1× reaction buffer/PIP2 (10 mM MgCl2, 5 mM DTT, 1.38 μM PIP2) mix with or without enzyme and incubated for 10 min. After the initial incubation, 5 μl/well of 400 μM ATP was added and incubated for an additional 30 minutes. Reaction was terminated by adding 5 μl/well stop solution (Millipore, Billerica, Mass.). Five microliters of detection mix (Millipore, Billerica, Mass.) were then added to each well and was incubated for 6-18 h in the dark. HRTF ratio was measured on a microplate reader (BMG Labtech, Germany) at an excitation wavelength of 337 nm and emission wavelengths of 665 and 620 nm with an integration time of 400 μsec. Data was analyzed using Graphpad Prism (Graphpad software; San Diego Calif.) for IC50 determination).

PI3Kδ = PI3Kδ (Homo sapiens, UniProt O00329); assay: Fluorescent determination of PI3Kinase enzyme activity (HTRF), PI3Kδ; type: biochemical; conditions: for inhibition at 0.1 µM: 100 nM (underlined values: 300 nM)
Chain of PI3Kδ (O00329 whole entry): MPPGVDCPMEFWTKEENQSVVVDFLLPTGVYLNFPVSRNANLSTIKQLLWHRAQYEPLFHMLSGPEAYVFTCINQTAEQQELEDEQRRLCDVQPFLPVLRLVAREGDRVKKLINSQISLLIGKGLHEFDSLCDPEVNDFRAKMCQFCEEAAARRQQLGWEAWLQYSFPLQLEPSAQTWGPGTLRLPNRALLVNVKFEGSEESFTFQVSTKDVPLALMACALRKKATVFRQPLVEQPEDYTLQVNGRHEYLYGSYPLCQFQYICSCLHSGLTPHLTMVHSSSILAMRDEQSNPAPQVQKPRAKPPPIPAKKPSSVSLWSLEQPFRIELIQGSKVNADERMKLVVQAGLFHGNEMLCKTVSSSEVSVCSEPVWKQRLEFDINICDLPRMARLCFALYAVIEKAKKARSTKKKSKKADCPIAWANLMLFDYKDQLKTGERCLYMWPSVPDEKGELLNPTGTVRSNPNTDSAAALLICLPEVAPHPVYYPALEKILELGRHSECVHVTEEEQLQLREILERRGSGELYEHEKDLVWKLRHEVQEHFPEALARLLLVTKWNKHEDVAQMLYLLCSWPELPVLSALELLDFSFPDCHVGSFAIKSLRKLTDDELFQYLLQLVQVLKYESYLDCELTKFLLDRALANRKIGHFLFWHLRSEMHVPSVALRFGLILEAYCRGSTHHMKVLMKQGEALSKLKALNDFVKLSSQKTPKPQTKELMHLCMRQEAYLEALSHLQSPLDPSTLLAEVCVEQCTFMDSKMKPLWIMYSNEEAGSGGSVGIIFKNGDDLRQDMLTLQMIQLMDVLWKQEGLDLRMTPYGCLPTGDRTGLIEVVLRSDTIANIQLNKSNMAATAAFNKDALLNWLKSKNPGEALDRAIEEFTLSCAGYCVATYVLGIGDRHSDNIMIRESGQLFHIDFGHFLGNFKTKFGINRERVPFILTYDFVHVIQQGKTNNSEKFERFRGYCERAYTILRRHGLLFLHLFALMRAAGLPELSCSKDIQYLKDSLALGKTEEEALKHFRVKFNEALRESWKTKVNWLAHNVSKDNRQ
Chain of PI3Kδ (P27986 whole entry partner): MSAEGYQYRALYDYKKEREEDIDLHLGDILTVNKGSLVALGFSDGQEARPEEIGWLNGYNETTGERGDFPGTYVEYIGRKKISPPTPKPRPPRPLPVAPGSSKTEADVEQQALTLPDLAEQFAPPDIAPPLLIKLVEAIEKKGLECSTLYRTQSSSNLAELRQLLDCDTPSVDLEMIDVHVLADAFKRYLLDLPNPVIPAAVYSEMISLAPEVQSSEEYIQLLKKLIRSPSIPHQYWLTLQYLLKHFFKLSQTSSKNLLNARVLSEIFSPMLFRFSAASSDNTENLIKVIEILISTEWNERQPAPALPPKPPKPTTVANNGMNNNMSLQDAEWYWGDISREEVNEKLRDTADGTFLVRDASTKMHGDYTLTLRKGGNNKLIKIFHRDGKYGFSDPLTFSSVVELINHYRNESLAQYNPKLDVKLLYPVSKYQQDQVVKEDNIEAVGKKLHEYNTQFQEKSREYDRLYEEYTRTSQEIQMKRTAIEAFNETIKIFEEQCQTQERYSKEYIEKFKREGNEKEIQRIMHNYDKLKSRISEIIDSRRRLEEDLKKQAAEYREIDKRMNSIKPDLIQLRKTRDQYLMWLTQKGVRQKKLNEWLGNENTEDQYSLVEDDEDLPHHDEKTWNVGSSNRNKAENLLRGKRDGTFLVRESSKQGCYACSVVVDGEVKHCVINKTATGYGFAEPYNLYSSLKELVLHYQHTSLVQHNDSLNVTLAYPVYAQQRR
Source text: as §1, §2, §3

PI3Kα = PI3Kα (Homo sapiens, UniProt P42336); assay: Fluorescent determination of PI3Kinase enzyme activity (HTRF), PI3Kα; type: biochemical
Chain of PI3Kα (P42336 whole entry): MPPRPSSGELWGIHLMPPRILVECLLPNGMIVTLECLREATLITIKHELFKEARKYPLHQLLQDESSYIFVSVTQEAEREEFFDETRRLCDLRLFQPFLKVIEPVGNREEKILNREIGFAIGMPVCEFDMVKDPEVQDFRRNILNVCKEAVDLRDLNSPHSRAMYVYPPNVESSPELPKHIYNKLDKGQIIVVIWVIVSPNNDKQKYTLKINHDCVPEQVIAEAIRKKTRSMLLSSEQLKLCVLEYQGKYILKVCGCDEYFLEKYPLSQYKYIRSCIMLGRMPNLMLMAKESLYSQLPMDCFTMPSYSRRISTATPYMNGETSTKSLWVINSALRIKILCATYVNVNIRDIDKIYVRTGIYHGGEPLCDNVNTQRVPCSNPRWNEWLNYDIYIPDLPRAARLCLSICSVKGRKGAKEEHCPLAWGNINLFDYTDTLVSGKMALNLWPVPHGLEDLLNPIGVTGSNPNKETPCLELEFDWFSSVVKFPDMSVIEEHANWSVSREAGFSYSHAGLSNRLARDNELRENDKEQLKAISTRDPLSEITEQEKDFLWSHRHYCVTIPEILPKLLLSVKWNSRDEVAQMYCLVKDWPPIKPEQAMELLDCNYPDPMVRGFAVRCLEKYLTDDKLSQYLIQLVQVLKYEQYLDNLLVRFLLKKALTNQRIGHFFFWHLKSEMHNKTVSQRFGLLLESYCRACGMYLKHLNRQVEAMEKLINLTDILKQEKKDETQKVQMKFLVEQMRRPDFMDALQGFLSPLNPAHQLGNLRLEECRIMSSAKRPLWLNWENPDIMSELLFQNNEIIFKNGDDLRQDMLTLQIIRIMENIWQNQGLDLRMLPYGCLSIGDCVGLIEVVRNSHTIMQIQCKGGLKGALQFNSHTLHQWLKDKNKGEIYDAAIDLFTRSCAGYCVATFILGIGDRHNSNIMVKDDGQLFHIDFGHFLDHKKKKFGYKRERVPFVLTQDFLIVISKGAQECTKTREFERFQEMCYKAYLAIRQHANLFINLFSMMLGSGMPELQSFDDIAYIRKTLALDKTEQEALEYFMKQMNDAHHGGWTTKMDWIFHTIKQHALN
Chain of PI3Kα (P27986 whole entry partner): as the sequence (P27986 whole entry partner) above
Source text: as §1, §2, §3

PI3Kγ = PI3Kγ (Homo sapiens, UniProt P48736); assay: Fluorescent determination of PI3Kinase enzyme activity (HTRF), PI3Kγ; type: biochemical; conditions: for inhibition at 0.1 µM: 100 nM (underlined values: 300 nM)
Chain of PI3Kγ (P48736 whole entry): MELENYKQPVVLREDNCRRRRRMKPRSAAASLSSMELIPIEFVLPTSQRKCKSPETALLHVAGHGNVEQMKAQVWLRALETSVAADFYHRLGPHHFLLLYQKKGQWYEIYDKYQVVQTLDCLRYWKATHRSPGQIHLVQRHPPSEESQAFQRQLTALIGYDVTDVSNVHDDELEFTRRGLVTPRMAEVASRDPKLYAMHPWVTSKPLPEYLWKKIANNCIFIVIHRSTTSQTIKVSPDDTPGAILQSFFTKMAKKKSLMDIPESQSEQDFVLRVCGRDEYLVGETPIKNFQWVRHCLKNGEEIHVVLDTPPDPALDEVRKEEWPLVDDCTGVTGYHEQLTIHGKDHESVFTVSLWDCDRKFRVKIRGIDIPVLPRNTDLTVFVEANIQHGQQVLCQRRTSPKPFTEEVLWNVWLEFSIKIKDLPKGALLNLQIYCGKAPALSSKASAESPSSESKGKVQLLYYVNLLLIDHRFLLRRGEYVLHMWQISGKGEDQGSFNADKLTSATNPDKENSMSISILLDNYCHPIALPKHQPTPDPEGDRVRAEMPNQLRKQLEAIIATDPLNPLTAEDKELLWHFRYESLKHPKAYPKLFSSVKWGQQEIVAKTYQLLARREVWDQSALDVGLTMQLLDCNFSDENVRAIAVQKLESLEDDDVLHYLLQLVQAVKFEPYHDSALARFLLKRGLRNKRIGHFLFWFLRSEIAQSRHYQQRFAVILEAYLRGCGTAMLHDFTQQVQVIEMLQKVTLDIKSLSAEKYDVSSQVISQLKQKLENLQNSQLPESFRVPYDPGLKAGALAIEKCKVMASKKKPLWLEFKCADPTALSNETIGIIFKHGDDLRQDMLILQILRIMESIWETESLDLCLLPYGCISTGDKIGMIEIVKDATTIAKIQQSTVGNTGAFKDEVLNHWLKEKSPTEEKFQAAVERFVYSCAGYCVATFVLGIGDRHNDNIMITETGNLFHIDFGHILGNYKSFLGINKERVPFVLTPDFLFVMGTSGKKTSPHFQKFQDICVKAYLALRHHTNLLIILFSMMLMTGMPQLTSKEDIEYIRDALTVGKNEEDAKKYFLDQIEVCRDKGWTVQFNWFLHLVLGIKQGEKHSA
Source text: as §1, §2, §3

Chain of PI3Kβ (P42338 whole entry): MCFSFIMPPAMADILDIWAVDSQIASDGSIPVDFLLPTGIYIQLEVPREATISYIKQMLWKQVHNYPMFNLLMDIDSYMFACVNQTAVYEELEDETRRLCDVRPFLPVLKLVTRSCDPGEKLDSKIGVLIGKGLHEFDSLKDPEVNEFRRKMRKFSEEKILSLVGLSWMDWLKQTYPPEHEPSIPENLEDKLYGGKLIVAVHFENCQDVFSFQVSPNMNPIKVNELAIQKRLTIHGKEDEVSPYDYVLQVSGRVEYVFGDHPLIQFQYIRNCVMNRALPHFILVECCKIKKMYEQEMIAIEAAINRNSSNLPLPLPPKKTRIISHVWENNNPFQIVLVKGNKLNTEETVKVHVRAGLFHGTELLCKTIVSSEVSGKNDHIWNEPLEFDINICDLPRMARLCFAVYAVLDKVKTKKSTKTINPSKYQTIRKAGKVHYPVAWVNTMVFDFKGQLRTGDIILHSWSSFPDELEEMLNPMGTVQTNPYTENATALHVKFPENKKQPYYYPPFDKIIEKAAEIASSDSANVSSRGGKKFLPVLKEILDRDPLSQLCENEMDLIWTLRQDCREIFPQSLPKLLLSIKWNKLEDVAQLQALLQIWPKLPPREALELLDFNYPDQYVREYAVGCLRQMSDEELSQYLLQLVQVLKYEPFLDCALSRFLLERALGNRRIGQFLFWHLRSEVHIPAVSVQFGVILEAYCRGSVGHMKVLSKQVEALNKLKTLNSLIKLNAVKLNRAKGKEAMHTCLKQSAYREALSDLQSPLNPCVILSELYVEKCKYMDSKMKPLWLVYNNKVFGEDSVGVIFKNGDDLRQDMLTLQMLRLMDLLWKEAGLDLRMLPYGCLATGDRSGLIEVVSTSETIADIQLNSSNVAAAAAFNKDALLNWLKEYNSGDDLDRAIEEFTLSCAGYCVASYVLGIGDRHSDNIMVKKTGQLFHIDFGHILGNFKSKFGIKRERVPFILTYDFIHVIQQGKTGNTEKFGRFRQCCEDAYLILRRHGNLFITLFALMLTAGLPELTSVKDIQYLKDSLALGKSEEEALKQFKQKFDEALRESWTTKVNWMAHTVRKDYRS
Chain of PI3Kβ (P27986 whole entry partner): as the sequence (P27986 whole entry partner) above

inhibition at 1 µM (PI3Kβ) [%] | inhibition at 0.1 µM (PI3Kδ) [%] | inhibition at 1 µM (PI3Kα) [%] | melting point [°C] | inhibition at 0.1 µM (PI3Kγ) [%] | IC50 (PI3Kδ) [nM] | IC50 (PI3Kγ) [nM] | Structure (SMILES)
20 to 40 | 40 to 60 | 0 to 10 | 230 to 232 | 20 to 40 |  |  | C[C@H](c1cc2ccccc2c(=O)n1-c1ccccc1)n1nc(-c2ccc(O)c(F)c2)c2c(N)ncnc21 [Example 7b, (−)-3-(1-(4-amino-3-(3-fluoro-4-hydroxyphenyl)-1H-pyrazolo[3,4-d]pyrimidin-1-yl)ethyl)-2-phenylisoquinolin-1(2H)-one]
20 to 40 | 20 to 40 | 0 to 10 | 230 to 233 | 0 to 20 |  |  | CC(c1nc2ccccc2c(=O)n1-c1ccccc1)n1nc(-c2ccc(O)c(F)c2)c2c(N)ncnc21 (centres unmarked) [Example 8, 2-(1-(4-amino-3-(3-fluoro-4-hydroxyphenyl)-1H-pyrazolo[3,4-d]pyrimidin-1-yl)ethyl)-3-phenylquinazolin-4(3H)-one]
40 to 60 | 40 to 60 | 20 to 40 | 260 to 263 | 20 to 40 |  |  | COc1ccc(-c2nn(C(C)c3cc4ccccc4c(=O)n3-c3ccccc3)c3ncnc(N)c23)cc1NS(C)(=O)=O (centres unmarked) [Example 9, N-(5-(4-amino-1-(1-(1-oxo-2-phenyl-1,2-dihydroisoquinolin-3-yl)ethyl)-1H-pyrazolo[3,4-d]pyrimidin-3-yl)-2-methoxyphenyl)methanesulfonamide]
10 to 20 | 40 to 60 | 0 to 10 | 158 to 162 | 0 to 20 |  |  | COc1ccc(-c2nn([C@H](C)c3cc4ccccc4c(=O)n3-c3ccccc3)c3ncnc(N)c23)cc1NS(C)(=O)=O [Example 9b, (−)—N-(5-(4-amino-1-(1-(1-oxo-2-phenyl-1,2-dihydroisoquinolin-3-yl)ethyl)-1H-pyrazolo[3,4-d]pyrimidin-3-yl)-2-methoxyphenyl)methanesulfonamide]
10 to 20 | 20 to 40 | 0 to 10 | 231 to 232 | 20 to 40 |  |  | CC(c1nc2ccc(F)cc2c(=O)n1-c1ccccc1)n1nc(-c2ccc(O)c(F)c2)c2c(N)ncnc21 (centres unmarked) [Example 13, 2-(1-(4-amino-3-(3-fluoro-4-hydroxyphenyl)-1H-pyrazolo[3,4-d]pyrimidin-1-yl)ethyl)-6-fluoro-3-phenylquinazolin-4(3H)-one]
60 to 80 | 60 to 80 | 20 to 40 | 218 to 219 | 80 to 100 |  |  | CC(c1cc2cccc(Cl)c2c(=O)n1-c1ccccc1)n1nc(-c2ccc(O)c(F)c2)c2c(N)ncnc21 (centres unmarked) [Example 14, 3-(1-(4-amino-3-(3-fluoro-4-hydroxyphenyl)-1H-pyrazolo[3,4-d]pyrimidin-1-yl)ethyl)-8-chloro-2-phenylisoquinolin-1(2H)-one]
20 to 40 | 60 to 80 | 0 to 10 | 215 to 219 | 20 to 40 |  |  | C[C@H](c1cc2cccc(Cl)c2c(=O)n1-c1ccccc1)n1nc(-c2ccc(O)c(F)c2)c2c(N)ncnc21 [Example 14b, (−)-3-(1-(4-amino-3-(3-fluoro-4-hydroxyphenyl)-1H-pyrazolo[3,4-d]pyrimidin-1-yl)ethyl)-8-chloro-2-phenylisoquinolin-1(2H)-one]
20 to 40 | 40 to 60 | 0 to 10 | 228 to 229 | 40 to 60 |  |  | CC(c1cc2cccc(F)c2c(=O)n1-c1ccccc1)n1nc(-c2ccc(O)c(F)c2)c2c(N)ncnc21 (centres unmarked) [Example 15, 3-(1-(4-amino-3-(3-fluoro-4-hydroxyphenyl)-1H-pyrazolo[3,4-d]pyrimidin-1-yl)ethyl)-8-fluoro-2-phenylisoquinolin-1(2H)-one]
0 to 10 | 20 to 40 | 0 to 10 | 258 to 260 | 0 to 20 |  |  | C[C@H](c1cc2cccc(F)c2c(=O)n1-c1ccccc1)n1nc(-c2ccc(O)c(F)c2)c2c(N)ncnc21 [Example 15b, (−)-3-(1-(4-amino-3-(3-fluoro-4-hydroxyphenyl)-1H-pyrazolo[3,4-d]pyrimidin-1-yl)ethyl)-8-fluoro-2-phenylisoquinolin-1(2H)-one]
60 to 80 | 40 to 60 | 0 to 10 | 212 to 214 | 40 to 60 |  |  | CC(c1nc2cccc(F)c2c(=O)n1-c1ccccc1)n1nc(-c2ccc(O)c(F)c2)c2c(N)ncnc21 (centres unmarked) [Example 16, 2-(1-(4-amino-3-(3-fluoro-4-hydroxyphenyl)-1H-pyrazolo[3,4-d]pyrimidin-1-yl)ethyl)-5-fluoro-3-phenylquinazolin-4(3H)-one]
0 to 10 | 20 to 40 | 0 to 10 | 269 to 271 | 0 to 20 |  |  | C[C@H](c1nc2cccc(F)c2c(=O)n1-c1ccccc1)n1nc(-c2ccc(O)c(F)c2)c2c(N)ncnc21 [Example 16b, (−)-2-(1-(4-amino-3-(3-fluoro-4-hydroxyphenyl)-1H-pyrazolo[3,4-d]pyrimidin-1-yl)ethyl)-5-fluoro-3-phenylquinazolin-4(3H)-one]
20 to 40 | 80 to 100 | 0 to 10 | 181 to 185 | 80 to 100 | 45.6 | 47.3 | C[C@H](c1cc2cccc(Cl)c2c(=O)n1-c1ccccc1)n1nc(-c2ccc(OC(F)F)c(F)c2)c2c(N)ncnc21 [Example 17b, (−)-3-(1-(4-amino-3-(4-(difluoromethoxy)-3-fluorophenyl)-1H-pyrazolo[3,4-d]pyrimidin-1-yl)ethyl)-8-chloro-2-phenylisoquinolin-1(2H)-one]
20 to 40 | 20 to 40 | 0 to 10 | 180 to 183 | 0 to 20 |  |  | COc1ccc(-c2nn([C@H](C)c3cc4cccc(Cl)c4c(=O)n3-c3ccccc3)c3ncnc(N)c23)cc1NS(C)(=O)=O [Example 20b, (−)—N-(5-(4-amino-1-(1-(8-chloro-1-oxo-2-phenyl-1,2-dihydroisoquinolin-3-yl)ethyl)-1H-pyrazolo[3,4-d]pyrimidin-3-yl)-2-methoxyphenyl)methanesulfonamide]
60 to 80 | 80 to 100 | 20 to 40 | 289 to 291 | 60 to 80 |  |  | Cc1n[nH]c2cc(-c3nn(C(C)c4cc5cccc(Cl)c5c(=O)n4-c4ccccc4)c4ncnc(N)c34)ccc12 (centres unmarked) [Example 21, 3-(1-(4-amino-3-(3-methyl-1H-indazol-6-yl)-1H-pyrazolo[3,4-d]pyrimidin-1-yl)ethyl)-8-chloro-2-phenylisoquinolin-1(2H)-one]
10 to 20 | 80 to 100 | 0 to 10 | 225 to 227 | 40 to 60 |  |  | Cc1n[nH]c2cc(-c3nn([C@H](C)c4cc5cccc(Cl)c5c(=O)n4-c4ccccc4)c4ncnc(N)c34)ccc12 [Example 21b, (−)-3-(1-(4-amino-3-(3-methyl-1H-indazol-6-yl)-1H-pyrazolo[3,4-d]pyrimidin-1-yl)ethyl)-8-chloro-2-phenylisoquinolin-1(2H)-one]
